The values that follow come from patent US9873696B2, “Neprilysin inhibitors” (THERAVANCE BIOPHARMA R&D IP, LLC, priority 2010, dated 2018).

T1 sequence (P08473 whole entry): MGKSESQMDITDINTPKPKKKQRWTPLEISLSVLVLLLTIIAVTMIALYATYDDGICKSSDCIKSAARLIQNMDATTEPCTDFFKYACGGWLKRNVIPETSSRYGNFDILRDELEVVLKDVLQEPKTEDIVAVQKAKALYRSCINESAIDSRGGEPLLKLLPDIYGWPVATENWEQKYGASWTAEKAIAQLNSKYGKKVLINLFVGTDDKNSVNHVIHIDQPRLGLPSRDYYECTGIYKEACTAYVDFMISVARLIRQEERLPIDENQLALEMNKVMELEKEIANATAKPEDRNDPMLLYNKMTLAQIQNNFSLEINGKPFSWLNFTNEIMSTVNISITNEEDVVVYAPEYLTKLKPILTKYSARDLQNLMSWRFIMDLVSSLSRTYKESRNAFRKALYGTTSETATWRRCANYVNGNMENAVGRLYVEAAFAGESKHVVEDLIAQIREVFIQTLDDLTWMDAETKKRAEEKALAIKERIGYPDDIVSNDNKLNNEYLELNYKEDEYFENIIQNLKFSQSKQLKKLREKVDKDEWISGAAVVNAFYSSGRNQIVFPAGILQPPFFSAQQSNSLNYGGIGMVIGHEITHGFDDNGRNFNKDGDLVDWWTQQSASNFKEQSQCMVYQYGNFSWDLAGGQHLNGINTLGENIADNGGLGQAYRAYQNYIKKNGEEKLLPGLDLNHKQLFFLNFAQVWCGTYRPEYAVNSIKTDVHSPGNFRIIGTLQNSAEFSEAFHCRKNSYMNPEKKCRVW

The experiment addresses T1, human NEP (Homo sapiens, UniProt P08473).
T1 construct: purchased R&D Systems, Minneapolis, Minn; 1182-ZN
The experiment can be described thus: In vitro enzyme inhibition assay at human NEP (Assay 1). In kind it is biochemical. The conditions noted are these: recombinant enzyme, fluorogenic peptide substrate, 37° C. How it is done:
In Vitro Assays for the Quantitation of Inhibitor Potencies (IC50) at Human and Rat NEP, and Human ACE
The inhibitory activities of compounds at human and rat neprilysin (EC 3.4.24.11; NEP) and human angiotensin converting enzyme (ACE) were determined using in vitro assays as described below.
Recombinant human NEP and recombinant human ACE were obtained commercially (R&D Systems, Minneapolis, Minn., catalog numbers 1182-ZN and 929-ZN, respectively). The fluorogenic peptide substrate Mca-D-Arg-Arg-Leu-Dap-(Dnp)-OH (Medeiros et al. (1997) Braz. J. Med. Biol. Res. 30:1157-62; Anaspec, San Jose, Calif.) and Abz-Phe-Arg-Lys(Dnp)-Pro-OH (Araujo et al. (2000) Biochemistry 39:8519-8525; Bachem, Torrance, Calif.) were used in the NEP and ACE assays respectively.
The assays were performed in 384-well white opaque plates at 37° C. using the fluorogenic peptide substrates at a concentration of 10 μM in Assay Buffer (NEP: 50 mM HEPES, pH 7.5, 100 mM NaCl, 0.01% polyethylene glycol sorbitan monolaurate (Tween-20), 10 μM ZnSO4; ACE: 50 mM HEPES, pH 7.5, 100 mM NaCl, 0.01% Tween-20, 1 μM ZnSO4).
Test compounds were assayed over the range of concentrations from […] to 20 μM. Test compounds were added to the enzymes and incubated for 30 minute at 37° C. prior to initiating the reaction by the addition of substrate. Reactions were terminated after 20 minutes of incubation at 37° C. by the addition of glacial acetic acid to a final concentration of 3.6% (v/v).
Plates were read on a fluorometer with excitation and emission wavelengths set to 320 nm and 405 nm, respectively. Inhibition constants were obtained by nonlinear regression of the data using the equation (GraphPad Software, Inc., San Diego, Calif.): v=v0/[1+(I/K′)] where v is the reaction rate, v0 is the uninhibited reaction rate, I is the inhibitor concentration and K′ is the apparent inhibition constant.
Compounds of the invention were tested in this assay and found to have pKi values at human NEP as follows.
By Ki is commonly meant a measure of affinity in units of concentration, obtained from inhibition or displacement. Consider `COc1ccc(F)cc1-c1ccc(CN(C[C@@H](O)C(=O)O)NC(=O)c2cc(O)no2)cc1` [Example 8-4, (R)-3-[N-(5′-Fluoro-2′-methoxy-biphenyl-4-ylmethyl)-N′-(3-hydroxy-isoxazole-5-carbonyl)-hydrazino]-2-hydroxy-propionic acid], for which the Ki was 1.26 to 10 nM.
Then `CN(C)C(=O)c1cc(C(=O)NN(Cc2ccc(-c3cc(Cl)ccc3F)cc2)C[C@@H](O)C(=O)O)[nH]n1` [Example 8-35, (R)-3-[N-(5′-Chloro-2′-fluoro-biphenyl-4-ylmethyl)-N′-(5-dimethylcarbamoyl-2H-pyrazole-3-carbonyl)-hydrazino]-2-hydroxy-propionic acid], with at most 1 nM.
With `O=C(NN(Cc1ccc(-c2cccc(Cl)c2)cc1)C[C@@H](O)C(=O)O)c1cnc(O)s1` [Example 4-40, (R)-3-[N-(3′-Chlorobiphenyl-4-ylmethyl)-N′-(2-hydroxy-thiazole-5-carbonyl)-hydrazino]-2-hydroxy-propionic acid], the Ki is 1.26 to 10 nM.
On to `O=C(NN(Cc1ccc(-c2cc(Cl)ccc2F)cc1)C[C@@H](O)C(=O)O)c1nnn[nH]1` [Example 6A, (R)-3-[N-(5′-Chloro-2′-fluorobiphenyl-4-ylmethyl)-N′-(1H-tetrazole-5-carbonyl)-hydrazino]-2-hydroxypropionic Acid], for which the Ki was at most 1 nM.
For `CC(=O)c1cc(C(=O)NN(Cc2ccc(-c3cc(Cl)ccc3C)cc2)C[C@H](O)C(=O)O)[nH]n1` [Example 8-47, (S)-3-[N′-(5-Acetyl-2H-pyrazole-3-carbonyl)-N-(5′-chloro-2′-methyl-biphenyl-4-ylmethyl)-hydrazino]-2-hydroxy-propionic acid], the Ki is 1.26 to 10 nM.
In the case of `Cc1cc(C(=O)NN(Cc2ccc(-c3cc(Cl)ccc3F)cc2)C[C@@H](O)C(=O)O)cc2[nH]nnc12` [Example 8-68, (R)-3-[N-(5′-Chloro-2′-fluoro-biphenyl-4-ylmethyl)-N′-(7-methyl-3H-benzotriazole-5-carbonyl)-hydrazino]-2-hydroxy-propionic acid] it was 1.26 to 10 nM; in that of `CC(C)CN(C)C(=O)c1cc(C(=O)NN(Cc2ccc(-c3cccc(Cl)c3)cc2)C[C@@H](O)C(=O)O)[nH]n1` [Example 4-16, (R)-3-{N-(3′-Chlorobiphenyl-4-ylmethyl)-N′-[5-(isobutyl-methyl-carbamoyl)-2H-pyrazole-3-carbonyl]-hydrazino}-2-hydroxy-propionic acid], at most 1 nM.
In the case of `O=C(O)c1cc(C(=O)NN(Cc2ccc(-c3cccc(Cl)c3)cc2)C[C@@H](O)C(=O)O)nc(O)n1` [Example 4-38, 6-[N′-((R)-2-Carboxy-2-hydroxy-ethyl)-N′-(3′-chlorobiphenyl-4-ylmethyl)-hydrazinocarbonyl]-2-hydroxy-pyrimidine-4-carboxylic acid] it was at most 1 nM.
In the case of `O=C(NN(Cc1ccc(-c2ccccc2)cc1)C[C@@H](O)C(=O)O)c1cc(C(=O)N2CC[C@H](O)C2)n[nH]1` [Example 2-12, (R)-3-{N-Biphenyl-4-ylmethyl-N′-[5-((S)-3-hydroxy-pyrrolidine-1-carbonyl)-2H-pyrazole-3-carbonyl]hydrazino}-2-hydroxypropionic acid] it was 1.26 to 10 nM; in that of `COc1ccccc1-c1cc(C(=O)NN(Cc2ccc(-c3cccc(Cl)c3)cc2)C[C@@H](O)C(=O)O)[nH]n1` [Example 4-20, (R)-3-{N-(3′-Chlorobiphenyl-4-ylmethyl)-N′-[5-(2-methoxy-phenyl)-2H-pyrazole-3-carbonyl]-hydrazino}-2-hydroxy-propionic acid], 1.26 to 10 nM.
In the case of `O=C(NN(Cc1ccc(-c2cccc(Cl)c2)cc1)C[C@@H](O)C(=O)O)c1cn(O)nn1` [Example 4-4, (R)-3-[N-(3′-Chlorobiphenyl-4-ylmethyl)-N′-(1-hydroxy-1H-[1,2,3]triazole-4-carbonyl)-hydrazino]-2-hydroxy-propionic acid], the Ki was at most 1 nM.
Then `CC(=O)c1cc(C(=O)NN(Cc2ccc(-c3cc(Cl)ccc3F)cc2)C[C@H](O)C(=O)O)[nH]n1` [Example 8-45, (S)-3-[N′-(5-Acetyl-2H-pyrazole-3-carbonyl)-N-(5′-chloro-2′-fluoro-biphenyl-4-ylmethyl)-hydrazino]-2-hydroxy-propionic acid], with at most 1 nM.
For `CC(C)(O)c1cc(C(=O)NN(Cc2ccc(-c3cc(Cl)ccc3F)cc2)C[C@@H](O)C(=O)O)nn1CC(=O)O` [Example 8-56, (R)-3-[N′-[1-Carboxymethyl-5-(1-hydroxy-1-methyl-ethyl)-1H-pyrazole-3-carbonyl]-N-(5′-chloro-2′-fluoro-biphenyl-4-ylmethyl)-hydrazino]-2-hydroxy-propionic acid], the Ki was 1.26 to 10 nM.
With `O=C(NN(Cc1ccc(-c2cccc(Cl)c2)cc1)C[C@@H](O)C(=O)O)c1ccnc(O)n1` [Example 4-37, (R)-3-[N-(3′-Chlorobiphenyl-4-ylmethyl)-N′-(2-hydroxy-pyrimidine-4-carbonyl)-hydrazino]-2-hydroxy-propionic acid], the Ki is 12.6 to 100 nM.
As to `O=C(NN(Cc1ccc(-c2cc(Cl)ccc2F)cc1)C[C@@H](O)C(=O)O)c1cc(O)no1` [Example 8-8, (R)-3-[N-(5′-Chloro-2′-fluoro-biphenyl-4-ylmethyl)-N′-(3-hydroxy-isoxazole-5-carbonyl)-hydrazino]-2-hydroxy-propionic acid], the Ki is at most 1 nM.
In the case of `O=C(NN(Cc1ccc(-c2cc(Cl)ccc2O)cc1)C[C@H](O)C(=O)O)c1cc(O)no1` [Example 8-6, (S)-3-[N-(5′-Chloro-2′-hydroxy-biphenyl-4-ylmethyl)-N′-(3-hydroxy-isoxazole-5-carbonyl)-hydrazino]-2-hydroxy-propionic acid] it was 1.26 to 10 nM; in that of `O=C(NN(Cc1ccc(-c2cccc(Cl)c2F)cc1)C[C@@H](O)C(=O)O)c1cc(O)no1` [Example 8-21, (R)-3-[N-(3′-Chloro-2′-fluoro-biphenyl-4-ylmethyl)-N′-(3-hydroxy-isoxazole-5-carbonyl)-hydrazino]-2-hydroxy-propionic acid], 1.26 to 10 nM.
Then `O=C(NN(Cc1ccc(-c2cc(Cl)ccc2F)cc1)C[C@@H](O)C(=O)O)c1cnc(O)s1` [Example 8-83, (R)-3-[N-(5′-Chloro-2′-fluoro-biphenyl-4-ylmethyl)-N′-(2-hydroxy-thiazole-5-carbonyl)-hydrazino]-2-hydroxy-propionic acid], with at most 1 nM; and `O=C(NN(Cc1ccc(-c2cc(F)ccc2O)cc1)C[C@H](O)C(=O)O)c1cc(O)no1` [Example 8-5, (S)-3-[N-(5′-Fluoro-2′-hydroxy-biphenyl-4-ylmethyl)-N′-(3-hydroxy-isoxazole-5-carbonyl)-hydrazino]-2-hydroxy-propionic acid], with 1.26 to 10 nM; and `O=C(NN(Cc1ccc(-c2cc(Cl)ccc2F)cc1)C[C@@H](O)C(=O)O)c1cc(O)n(-c2ccccc2F)n1` [Example 8-52, (R)-3-{N-(5′-Chloro-2′-fluoro-biphenyl-4-ylmethyl)-N′-[1-(2-fluoro-phenyl)-5-hydroxy-1H-pyrazole-3-carbonyl]-hydrazino}-2-hydroxy-propionic acid], with 1.26 to 10 nM.
On to `O=C(NN(Cc1ccc(-c2cc(Cl)ccc2Cl)cc1)C[C@@H](O)C(=O)O)c1cn(O)nn1` [Example 7A, (R)-3-[N-(2′,5′-Dichlorobiphenyl-4-ylmethyl)-N′-(1-hydroxy-H-[1,2,3]triazole-4-carbonyl)-hydrazino]-2-hydroxypropionic Acid], for which the Ki is at most 1 nM.
Then `O=C(NN(Cc1ccc(-c2cccc(Cl)c2)cc1)C[C@H](O)C(=O)O)c1cc(O)no1` [Example 3K, (S)-3-[N-(3′-Chloro-biphenyl-4-ylmethyl)-N′-(3-hydroxyisoxazole-5-carbonyl)-hydrazino]-2-hydrox-propionic Acid], with at most 1 nM.
In the case of `COc1ccccc1-c1ccc(CN(C[C@H](O)C(=O)O)NC(=O)c2cc(C(C)=O)n[nH]2)cc1` [Example 5-9, (S)-3-[N′-(5-Acetyl-2H-pyrazole-3-carbonyl)-N-(2′-methoxy-biphenyl-4-ylmethyl)-hydrazino]-2-hydroxy-propionic acid] it was 1.26 to 10 nM.
Then `O=C(NN(Cc1ccc(-c2ccccc2)cc1)C[C@@H](O)C(=O)O)c1cc(C(=O)O)n(Cc2c(F)cc(Cl)cc2F)n1` [Example 2-17, 5-[N′-Biphenyl-4-ylmethyl-N′-((R)-2-carboxy-2-hydroxyethyl)-hydrazinocarbonyl]-2-(4-chloro-2,6-difluorobenzyl)-2H-pyrazole-3-carboxylic acid], with 12.6 to 100 nM.
For the molecule `CC(C)(O)c1cc(C(=O)NN(Cc2ccc(-c3cc(Cl)ccc3F)cc2)C[C@@H](O)C(=O)O)[nH]n1` [Example 8-40, (R)-3-{N-(5′-Chloro-2′-fluoro-biphenyl-4-ylmethyl)-N′-[5-(1-hydroxy-1-methyl-ethyl)-2H-pyrazole-3-carbonyl]-hydrazino}-2-hydroxy-propionic acid], the Ki is at most 1 nM.
